Laboratory results taken from ChEMBL document CHEMBL1909046, “DrugMatrix in vitro pharmacology data”.

Columns and labels:
[1] = target: T1, Muscarinic acetylcholine receptor M4 (Homo sapiens, UniProt P08173); type: cell membranes, CHO-K1, Membrane; conditions: cho-k1; also: in other assays of this panel Not Active means under 50% inhibition at 10 µM
T1 sequence (P08173 whole entry): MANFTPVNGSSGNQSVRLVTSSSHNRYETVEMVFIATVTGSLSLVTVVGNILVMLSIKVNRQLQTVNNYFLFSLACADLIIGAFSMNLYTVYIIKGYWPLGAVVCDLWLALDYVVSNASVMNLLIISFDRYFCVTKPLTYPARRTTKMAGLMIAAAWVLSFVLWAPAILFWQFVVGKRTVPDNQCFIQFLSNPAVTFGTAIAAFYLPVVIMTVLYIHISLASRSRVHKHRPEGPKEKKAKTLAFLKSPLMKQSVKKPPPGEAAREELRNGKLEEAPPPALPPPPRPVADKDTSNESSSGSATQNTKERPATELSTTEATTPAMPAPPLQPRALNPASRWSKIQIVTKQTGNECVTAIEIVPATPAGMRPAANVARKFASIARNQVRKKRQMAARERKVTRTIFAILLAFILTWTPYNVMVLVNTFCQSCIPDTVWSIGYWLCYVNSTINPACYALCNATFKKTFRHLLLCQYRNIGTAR

[2] = target: Voltage-gated inwardly rectifying potassium channel KCNH2 (Homo sapiens, UniProt Q12809); conditions: hek293; also: in other assays of this panel Not Active means under 50% inhibition at 10 µM
Chain of Voltage-gated inwardly rectifying potassium channel KCNH2 (Q12809 whole entry): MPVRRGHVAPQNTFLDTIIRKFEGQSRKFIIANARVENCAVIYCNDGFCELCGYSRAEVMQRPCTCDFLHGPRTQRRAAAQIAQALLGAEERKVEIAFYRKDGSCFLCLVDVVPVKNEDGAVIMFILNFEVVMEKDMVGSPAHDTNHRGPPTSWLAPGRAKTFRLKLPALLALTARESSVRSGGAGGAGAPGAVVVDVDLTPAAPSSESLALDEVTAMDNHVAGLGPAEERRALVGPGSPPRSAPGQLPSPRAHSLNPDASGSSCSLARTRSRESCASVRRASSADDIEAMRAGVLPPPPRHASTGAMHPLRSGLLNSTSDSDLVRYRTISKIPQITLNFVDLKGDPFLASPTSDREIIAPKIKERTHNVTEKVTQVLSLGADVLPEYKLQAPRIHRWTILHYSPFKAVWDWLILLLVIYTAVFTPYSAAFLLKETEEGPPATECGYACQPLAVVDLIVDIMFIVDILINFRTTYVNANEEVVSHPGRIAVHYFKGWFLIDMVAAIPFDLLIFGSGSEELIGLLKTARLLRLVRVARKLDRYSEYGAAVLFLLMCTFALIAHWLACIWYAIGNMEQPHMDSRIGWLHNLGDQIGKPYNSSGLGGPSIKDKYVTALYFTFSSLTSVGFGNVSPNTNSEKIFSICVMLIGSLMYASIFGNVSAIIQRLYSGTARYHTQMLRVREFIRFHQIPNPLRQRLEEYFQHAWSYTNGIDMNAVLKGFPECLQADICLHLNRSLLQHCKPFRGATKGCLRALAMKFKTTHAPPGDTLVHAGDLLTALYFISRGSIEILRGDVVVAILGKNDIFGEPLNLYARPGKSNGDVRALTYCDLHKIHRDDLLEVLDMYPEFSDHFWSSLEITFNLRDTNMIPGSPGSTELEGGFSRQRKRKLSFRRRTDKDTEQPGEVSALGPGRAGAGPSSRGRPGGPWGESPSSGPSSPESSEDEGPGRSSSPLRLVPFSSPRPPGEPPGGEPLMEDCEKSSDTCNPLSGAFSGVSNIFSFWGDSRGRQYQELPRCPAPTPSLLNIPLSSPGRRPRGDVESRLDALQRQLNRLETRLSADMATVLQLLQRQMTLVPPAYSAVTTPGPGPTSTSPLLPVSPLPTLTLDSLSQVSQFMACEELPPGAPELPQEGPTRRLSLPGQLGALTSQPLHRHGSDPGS

[3] = target: Prostaglandin G/H synthase 1 (Homo sapiens, UniProt P23219); test: biochemical; type: tissue-based, Platelet; conditions: platelet;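 also: inhibition of COX-1 enzyme activity, with arachidonic acid supplied as substrate; in other assays of this panel Not Active means under 50% inhibition at 10 µM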
Chain of Prostaglandin G/H synthase 1 (P23219 whole entry): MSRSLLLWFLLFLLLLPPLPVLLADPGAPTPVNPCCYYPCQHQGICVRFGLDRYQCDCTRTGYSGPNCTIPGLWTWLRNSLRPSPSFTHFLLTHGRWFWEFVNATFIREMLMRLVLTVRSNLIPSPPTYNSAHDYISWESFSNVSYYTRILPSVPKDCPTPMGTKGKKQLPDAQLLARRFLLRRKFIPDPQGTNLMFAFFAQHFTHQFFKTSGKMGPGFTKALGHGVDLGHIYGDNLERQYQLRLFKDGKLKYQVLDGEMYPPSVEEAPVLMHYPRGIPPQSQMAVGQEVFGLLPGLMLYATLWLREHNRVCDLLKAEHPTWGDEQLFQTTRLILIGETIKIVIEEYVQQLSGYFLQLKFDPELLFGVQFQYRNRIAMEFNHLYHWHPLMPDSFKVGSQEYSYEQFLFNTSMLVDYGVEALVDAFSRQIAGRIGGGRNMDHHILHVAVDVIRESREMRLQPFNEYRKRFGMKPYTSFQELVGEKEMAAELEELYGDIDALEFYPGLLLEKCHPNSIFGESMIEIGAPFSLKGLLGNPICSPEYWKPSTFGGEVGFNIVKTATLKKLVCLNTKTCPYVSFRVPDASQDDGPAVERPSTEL

[4] = DRUGMATRIX: Phorbol Ester radioligand binding (ligand: [3H] PDBu); type: cell membranes, Mus musculus, ICR, Brain, Membrane; conditions: Not Active = under 50% inhibition at 10 µM
[5] = target: Matrix metalloproteinase-9 (Homo sapiens, UniProt P14780); test: biochemical; type: cell-based;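 also: inhibition of isolated MMP-9 enzyme activity toward a synthetic peptide substrate, from the DrugMatrix protease screening panel; in other assays of this panel Not Active means under 50% inhibition at 10 µM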
Chain of Matrix metalloproteinase-9 (P14780 whole entry): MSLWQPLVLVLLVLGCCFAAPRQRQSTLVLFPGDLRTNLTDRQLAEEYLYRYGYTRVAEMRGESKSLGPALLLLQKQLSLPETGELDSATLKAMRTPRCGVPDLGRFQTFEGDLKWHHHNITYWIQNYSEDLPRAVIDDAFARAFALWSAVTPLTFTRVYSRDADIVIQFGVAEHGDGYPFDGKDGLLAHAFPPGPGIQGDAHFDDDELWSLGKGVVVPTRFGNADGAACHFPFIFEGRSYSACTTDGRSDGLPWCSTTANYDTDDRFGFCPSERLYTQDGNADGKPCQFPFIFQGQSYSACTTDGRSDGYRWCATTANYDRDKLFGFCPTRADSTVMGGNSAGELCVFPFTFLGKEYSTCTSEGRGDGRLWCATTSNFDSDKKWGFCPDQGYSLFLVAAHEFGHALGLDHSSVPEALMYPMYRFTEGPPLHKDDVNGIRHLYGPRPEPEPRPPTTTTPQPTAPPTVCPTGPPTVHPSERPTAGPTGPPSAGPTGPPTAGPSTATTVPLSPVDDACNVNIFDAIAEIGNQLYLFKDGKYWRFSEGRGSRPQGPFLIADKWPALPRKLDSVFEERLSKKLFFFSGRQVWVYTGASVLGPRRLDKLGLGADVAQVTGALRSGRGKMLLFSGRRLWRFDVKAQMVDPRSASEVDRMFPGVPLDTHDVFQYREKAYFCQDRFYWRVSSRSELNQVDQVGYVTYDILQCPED

[6] = target: 5-hydroxytryptamine receptor 2B (Homo sapiens, UniProt P41595); type: cell membranes, CHO-K1, Membrane; also: in other assays of this panel Not Active means under 50% inhibition at 10 µM
Chain of 5-hydroxytryptamine receptor 2B (P41595 whole entry): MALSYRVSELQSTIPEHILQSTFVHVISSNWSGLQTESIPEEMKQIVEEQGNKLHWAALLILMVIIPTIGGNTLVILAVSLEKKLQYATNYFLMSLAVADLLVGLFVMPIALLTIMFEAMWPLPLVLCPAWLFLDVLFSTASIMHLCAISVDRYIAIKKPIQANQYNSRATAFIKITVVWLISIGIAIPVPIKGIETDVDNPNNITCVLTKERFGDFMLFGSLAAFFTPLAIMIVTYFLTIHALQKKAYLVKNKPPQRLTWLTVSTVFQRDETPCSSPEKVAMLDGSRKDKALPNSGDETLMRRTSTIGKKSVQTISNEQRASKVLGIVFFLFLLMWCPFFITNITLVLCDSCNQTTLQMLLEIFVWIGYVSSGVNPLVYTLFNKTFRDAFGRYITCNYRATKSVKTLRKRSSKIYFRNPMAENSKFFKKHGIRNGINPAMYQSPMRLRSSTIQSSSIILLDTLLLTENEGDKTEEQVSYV

[7] = target: Mitogen-activated protein kinase 3 (Homo sapiens, UniProt P27361); test: DRUGMATRIX: Protein Serine/Threonine Kinase, ERK1 enzyme inhibition (substrate: Myelin Basic Protein); parameters: species or system Escherichia coli; conditions: Not Active = under 50% inhibition at 10 µM
Chain of Mitogen-activated protein kinase 3 (P27361 whole entry): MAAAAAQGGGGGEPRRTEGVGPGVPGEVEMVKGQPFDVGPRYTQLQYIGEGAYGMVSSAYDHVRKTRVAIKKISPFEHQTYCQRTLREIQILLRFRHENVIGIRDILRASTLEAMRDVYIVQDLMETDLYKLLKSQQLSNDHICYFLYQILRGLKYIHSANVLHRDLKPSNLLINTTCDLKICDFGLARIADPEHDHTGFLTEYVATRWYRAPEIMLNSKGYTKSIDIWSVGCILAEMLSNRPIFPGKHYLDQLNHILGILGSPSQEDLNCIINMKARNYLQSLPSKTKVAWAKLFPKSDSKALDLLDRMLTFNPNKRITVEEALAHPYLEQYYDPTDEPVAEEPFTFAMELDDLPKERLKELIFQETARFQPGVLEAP

CCOC(=O)[C@H](CCc1ccccc1)N[C@@H](C)C(=O)N1CCC[C@H]1C(=O)O
Not Active: IC50 [1] | IC50 [2] | Ki [2] | IC50 [3] | IC50 [4] | Ki [4] | IC50 [5] | IC50 ([6]; cho-k1) | IC50 [7]

POLYVINYL ALCOHOL
Not Active: IC50 [1] | Ki [1] | IC50 [2] | Ki [2] | IC50 [3] | Ki [3] | IC50 [4] | Ki [4] | IC50 [5] | Ki [5] | IC50 ([6]; cho-k1) | Ki ([6]; cho-k1) | IC50 [7] | Ki [7]

CCC[C@@H]1C[C@@H](C(=O)N[C@@H]([C@H]2O[C@H](SC)[C@H](O)[C@@H](O)[C@H]2O)[C@H](C)Cl)N(C)C1 [CLINDAMYCIN]
Not Active: IC50 [1] | IC50 [3] | IC50 [4] | Ki [4] | IC50 [5] | IC50 ([6]; cho-k1) | IC50 [7]

CN(Cc1cnc2nc(N)nc(N)c2n1)c1ccc(C(=O)N[C@@H](CCC(=O)O)C(=O)O)cc1 [METHOTREXATE]
Not Active: IC50 [1] | IC50 [2] | Ki [2] | IC50 [3] | IC50 [4] | Ki [4] | IC50 [5] | IC50 ([6]; cho-k1) | IC50 [7]

CO[C@@]1(NC(=O)CSCC#N)C(=O)N2C(C(=O)O)=C(CSc3nnnn3C)CS[C@@H]21 [CEFMETAZOLE]
Not Active: IC50 [1] | IC50 [2] | Ki [2] | IC50 [3] | IC50 [4] | Ki [4] | IC50 [5] | IC50 ([6]; cho-k1) | IC50 [7]

C[C@@H]1CC[C@H]2[C@@H](C)C(=O)O[C@@H]3O[C@@]4(C)CC[C@@H]1[C@]32OO4 [ARTEMISININ]
Not Active: IC50 [1] | IC50 [2] | Ki [2] | IC50 [3] | IC50 [4] | Ki [4] | IC50 [5] | IC50 ([6]; cho-k1) | IC50 [7]

CC(C(=O)O)c1ccc(CC2CCCC2=O)cc1 (configuration not stated) [LOXOPROFEN]
Not Active: IC50 [1] | IC50 [2] | Ki [2] | IC50 [3] | IC50 [4] | Ki [4] | IC50 [5] | IC50 ([6]; cho-k1) | IC50 [7]

CCCCCC[C@H]1C(=O)O[C@H](C)[C@H](NC(=O)c2cccc(NC=O)c2O)C(=O)O[C@@H](C)[C@@H]1OC(=O)CC(C)C [ANTIMYCIN A]
Not Active: IC50 [1] | IC50 [2] | Ki [2] | IC50 [3] | IC50 [4] | Ki [4] | IC50 [5] | IC50 ([6]; cho-k1) | IC50 [7]

C#C[C@]1(O)CC[C@H]2[C@@H]3CCc4cc(O)ccc4[C@H]3CC[C@@]21C [ETHINYL ESTRADIOL]
Not Active: IC50 [1] | IC50 [2] | Ki [2] | IC50 [3] | IC50 [4] | Ki [4] | IC50 [5] | IC50 ([6]; cho-k1) | IC50 [7]

CC[C@H]1OC(=O)[C@H](C)[C@@H](O[C@H]2C[C@@](C)(OC)[C@@H](O)[C@H](C)O2)[C@H](C)[C@@H](O[C@@H]2O[C@H](C)C[C@H](N(C)C)[C@H]2O)[C@](C)(O)C[C@@H](C)CN(C)[C@H](C)[C@@H](O)[C@]1(C)O [AZITHROMYCIN]
Not Active: IC50 [1] | IC50 [2] | Ki [2] | IC50 [3] | IC50 [4] | Ki [4] | IC50 [5] | IC50 ([6]; cho-k1) | IC50 [7]

COc1ccc2cc(CCC(C)=O)ccc2c1 [NABUMETONE]
Not Active: IC50 [1] | IC50 [2] | Ki [2] | IC50 [3] | IC50 [4] | Ki [4] | IC50 [5] | IC50 ([6]; cho-k1) | IC50 [7]

CCCCC1C(=O)N(c2ccccc2)N(c2ccccc2)C1=O [PHENYLBUTAZONE]
Not Active: IC50 [1] | IC50 [2] | Ki [2] | IC50 [3] | IC50 [4] | Ki [4] | IC50 [5] | IC50 ([6]; cho-k1) | IC50 [7]

C=C1/C(=C\C=C2/CCC[C@]3(C)[C@@H]([C@H](C)CCCC(C)C)CC[C@@H]23)C[C@@H](O)C[C@@H]1O [ALFACALCIDOL]
Not Active: IC50 [1] | IC50 [2] | Ki [2] | IC50 [3] | IC50 [4] | Ki [4] | IC50 [5] | IC50 ([6]; cho-k1) | IC50 [7]

NC(=O)N1c2ccccc2C=Cc2ccccc21 [CARBAMAZEPINE]
Not Active: IC50 [1] | IC50 [2] | Ki [2] | IC50 [3] | IC50 [4] | Ki [4] | IC50 [5] | IC50 ([6]; cho-k1) | IC50 [7]

COc1ccc(Cc2nccc3cc(OC)c(OC)cc23)cc1OC [PAPAVERINE]
Not Active: IC50 [1] | IC50 [2] | Ki [2] | IC50 [3] | IC50 [4] | Ki [4] | IC50 [5] | IC50 ([6]; cho-k1) | IC50 [7]

CNC(=C[N+](=O)[O-])NCCSCc1csc(CN(C)C)n1 [NIZATIDINE]
Not Active: IC50 [1] | IC50 [2] | Ki [2] | IC50 [3] | IC50 [4] | Ki [4] | IC50 [5] | IC50 ([6]; cho-k1) | IC50 [7]

COc1ccccc1OCC(O)CO (configuration not stated) [GUAIFENESIN]
Not Active: IC50 [1] | IC50 [2] | Ki [2] | IC50 [3] | IC50 [4] | Ki [4] | IC50 [5] | IC50 ([6]; cho-k1) | IC50 [7]

O=C(c1ccccc1Cl)N1CCC(Cc2ccccc2)CC1
1510 nM: IC50 ([6]; read-out: IC50)
960 nM: Ki ([6]; read-out: Ki)
Not Active: IC50 [1] | IC50 [2] | Ki [2] | IC50 [3] | IC50 [4] | Ki [4] | IC50 [5] | IC50 [7]

Cc1cccc(Nc2cc(Cl)nc(SCC(=O)O)n2)c1C [PIRINIXIC ACID]
Not Active: IC50 [1] | IC50 [2] | Ki [2] | IC50 [3] | IC50 [4] | Ki [4] | IC50 [5] | IC50 ([6]; cho-k1) | IC50 [7]

CC(CCc1ccc(O)cc1)NCCc1ccc(O)c(O)c1 (configuration not stated) [DOBUTAMINE]
Not Active: IC50 [1] | IC50 [2] | Ki [2] | IC50 [3] | IC50 [4] | Ki [4] | IC50 [5] | IC50 ([6]; cho-k1) | IC50 [7]

C/C=C\c1ccc(O)c(OC)c1 [ISOEUGENOL]
Not Active: IC50 [1] | IC50 [3] | IC50 [4] | Ki [4] | IC50 [5] | IC50 ([6]; cho-k1) | IC50 [7]

C[C@H](C(=O)O)c1cccc(C(=O)c2ccccc2)c1 [DEXKETOPROFEN]
Not Active: IC50 [1] | IC50 [2] | Ki [2] | IC50 [4] | Ki [4] | IC50 [5] | IC50 ([6]; cho-k1) | IC50 [7]

Cc1c(N(C)CS(=O)(=O)[O-])c(=O)n(-c2ccccc2)n1C.[Na+] [DIPYRONE SODIUM]
Not Active: IC50 [1] | IC50 [2] | Ki [2] | IC50 [3] | IC50 [4] | Ki [4] | IC50 [5] | IC50 ([6]; cho-k1)

CN1C(=O)CN=C(c2ccccc2)c2cc(Cl)ccc21 [DIAZEPAM]
Not Active: IC50 [1] | IC50 [3] | IC50 [4] | Ki [4] | IC50 [5] | IC50 ([6]; cho-k1) | IC50 [7]

Cc1cnc(C(=O)NCCc2ccc(S(=O)(=O)NC(=O)NC3CCCCC3)cc2)cn1 [GLIPIZIDE]
Not Active: IC50 [1] | IC50 [3] | IC50 [4] | Ki [4] | IC50 [5] | IC50 ([6]; cho-k1)

OCCN1CCN(CCCN2c3ccccc3Sc3ccc(Cl)cc32)CC1 [PERPHENAZINE]
Not Active: IC50 [1] | IC50 [3] | IC50 [4] | Ki [4] | IC50 [5] | IC50 ([6]; cho-k1) | IC50 [7]

CC(C(=O)O)c1ccc(-c2ccccc2)c(F)c1 (configuration not stated) [FLURBIPROFEN]
Not Active: IC50 [1] | IC50 [2] | Ki [2] | IC50 [4] | Ki [4] | IC50 [5] | IC50 ([6]; cho-k1) | IC50 [7]

CC[C@H](C)C(=O)O[C@H]1C[C@@H](C)C=C2C=C[C@H](C)[C@H](CC[C@@H]3C[C@@H](O)CC(=O)O3)[C@H]21 [LOVASTATIN]
Not Active: IC50 [1] | IC50 [3] | IC50 [4] | Ki [4] | IC50 [5] | IC50 ([6]; cho-k1) | IC50 [7]
